# Source: PubChem BioAssay AID2060355 (Molecular Pharmacology Branch, DTP, NCI, 2025)
# Several values for one entry are separate records, joined by “and”; a condition that tells them apart may be missing. Equal entries are not always repeated.
# Test system: 485368-065-R4-J2-PDC spheroids with HUVEC/MSC, viability
# Test: Anticancer human tumor 485368-065-R4-J2-PDC patient-derived pancreatic carcinoma cell line growth inhibition [TAK]
# Details: for viability, T/C: stronger effect = lower value
# Excerpt: Combinatorial screen of targeted agents with TAK-243 and ipatasertib in multi-cell type tumor spheroids
# A high-throughput screen of multi-cell type tumor spheroids was designed to identify active combinations of targeted small molecules and TAK-243 or ipatasertib. Complex spheroids include a stromal component modeled by human endothelial cells (HUVEC) and fibroblasts modeled by human mesenchymal stem cells (MSCs). The concentration ranges selected for each drug and investigational agent were based upon clinically achievable concentrations if the clinical Cmax of the agent was known.
# Compounds. The drugs and investigational agents: TAK-243 (785004), ipatasertib (767898), everolimus (733504), selumetinib (741078), bortezomib (756655), trametinib (758246), ixazomib (758254), vemurafenib (761431), dabrafenib (764134), sapanisertib (764658), alpelisib (765974), and copanlisib (816437), were obtained from the National Cancer Institute (NCI) Developmental Therapeutics Program Chemical Repository. The FDA-approved anticancer drug set is available from the NCI Developmental Therapeutics Program. […] The stock solutions were prepared in dimethyl sulfoxide (DMSO, Sigma-Aldrich, St. Louis, MO, cat. D2650) at 800-fold the tested concentration and stored at -70 degrees C prior to their use. All drugs and investigational agents were tested over a range starting from a high concentration at or near the clinical Cmax and decreasing in half-log increments. If the clinical Cmax for an agent had not been determined, the highest concentration tested was 10 microM.
# NCI60 Cell Culture. NCI60 cell lines were obtained from the NCI Developmental Therapeutics Program Tumor Repository. For each lot of cells, the Repository performed Applied Biosystems AmpFLSTR Identifiler testing with PCR amplification to confirm consistency with the published Identifier STR profile for each cell line. Cells were kept in continuous culture for no more than 20 passages. The optimal seeding densities for each of the cell lines at each time point assessed were determined prior to performing the concentration response studies. Briefly, the NCI60 human tumor lines were grown as monolayers in RPMI 1640 medium supplemented with 10% FBS and 2 mmol/L L-glutamine.
# An additional 2 lines were from the NCI60 cell line panel including melanomas, MALME-3M and SK-MEL-2. Pooled donor human umbilical vein endothelial cells (HUVEC, Lonza, cat. CC-2519) and human mesenchymal stem cells (hMSC, Lonza, cat. PT-2501) were purchased from Lonza (Walkersville, MD).
# PDMR cell lines were grown in complete medium (DC medium): Dulbecco's modified Eagle's medium (DMEM)/F12 supplemented with 5% fetal bovine serum (FBS), 2 mM L-glutamine, 100 U/mL penicillin and 100 µg/ml streptomycin, 0.4 µg/ml hydrocortisone, 10 ng/ml epidermal growth factor (EGF) recombinant human protein, 24 µg/mL adenine, and 0.1 mg/mL primocin. During culture from frozen stock vials, PDMR cells were cultured in the same medium containing 10 µM Y-27632 (see Table 3). The PDCs were cultured in complete DMEM/F12 media without 10 microM Y-27632 dihydrochloride for at least two passages prior to the screen. The pooled donor HUVEC and hMSC were cultured in endothelial cell growth medium 2 (PromoCell, Heidelberg, Germany, cat. C-22011) and mesenchymal stem cell growth medium 2 (PromoCell, cat. C-28009), respectively. For all experiments, HUVEC and hMSC were used at passages </=5.
# For the pre-screen, cell seeding densities were determined from a titration spanning the range from 5,000 to 313 cells per well. The mct-spheroids including 60% malignant cells, 25% HUVEC and 15% MSC dispensed as a mixture into U-bottom Ultra-Low Attachment 384-well plates (Corning, NY)
# High-throughput Drug Combination Screening.
# Prior to their inoculation into 384-well plates, malignant cells, HUVEC, and hMSC were removed from T flasks using TrypLE express (Thermo Fisher Scientific, cat. 12605036) and harvested by centrifugation for 5 min at 233 x g. […]
# 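Further: spheroids exposed to compounds for seven days before readout.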
# 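Wherever viability, T/C is given: 100% = DMSO vehicle control wells.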
smiles,measurement,setting,value
COc1c(OCCCN2CCOCC2)ccc2c3n(c(=NC(=O)c4cnc(N)nc4)nc12)CCN3,"viability, T/C",compound 0.00316 µM,95.2% and 89.6%
same,"viability, T/C",compound 0.01 µM,74.6% and 75.8%
same,"viability, T/C",compound 0.0316 µM,72.5% and 70.2%
same,"viability, T/C",compound 0.1 µM,56.2% and 51.2%
same,"viability, T/C",compound 0.316 µM,32.7% and 29.9%
same,"viability, T/C",compound 1 µM,29.5% and 26.7%
same,IC50,curve of compound,126 nM and 96.9 nM
Cc1nc(NC(=O)N2CCCC2C(N)=O)sc1-c1ccnc(C(C)(C)C(F)(F)F)c1 (stereo unspecified),"viability, T/C",compound 0.0316 µM,100% and 99.2%
same,"viability, T/C",compound 0.1 µM,92.8% and 93%
same,"viability, T/C",compound 0.316 µM,81.5% and 77.7%
same,"viability, T/C",compound 1 µM,81.9% and 78.4%
same,"viability, T/C",compound 3.16 µM,73.4% and 71.8%
same,"viability, T/C",compound 10 µM,51% and 48.5%
same,IC50,curve of compound,> 10000 nM
Cn1cnc2c(F)c(Nc3ccc(Br)cc3Cl)c(C(=O)NOCCO)cc21,"viability, T/C",compound 0.00949 µM,70.9% and 67.5%
same,"viability, T/C",compound 0.03 µM,68.9% and 66.8%
same,"viability, T/C",compound 0.0949 µM,76.3% and 60.8%
same,"viability, T/C",compound 0.3 µM,64.8% and 51%
same,"viability, T/C",compound 0.949 µM,54.1% and 43.5%
same,"viability, T/C",compound 3 µM,36.9% and 30.2%
same,IC50,curve of compound,1220 nM and 405 nM
COC1CC2CCC(C)C(O)(O2)C(=O)C(=O)N2CCCCC2C(=O)OC(C(C)CC2CCC(OCCO)C(OC)C2)CC(=O)C(C)C=C(C)C(O)C(OC)C(=O)C(C)CC(C)C=CC=CC=C1C (stereo unspecified) + CC(C)NCC(C(=O)N1CCN(c2ncnc3c2C(C)CC3O)CC1)c1ccc(Cl)cc1,IC50,"curve of first compound, second compound 0.3 µM",> 100 nM
same,IC50,"curve of first compound, second compound 0.949 µM",> 100 nM
same,IC50,"curve of first compound, second compound 3 µM",> 100 nM
same,IC50,"curve of first compound, second compound 9.49 µM",> 100 nM
same,IC50,"curve of first compound, second compound 30 µM",> 100 nM
same,"viability, T/C","second compound 0.3 µM, first compound 0.000316 µM",93.1%
same,"viability, T/C","second compound 0.3 µM, first compound 0.001 µM",102%
same,"viability, T/C","second compound 0.3 µM, first compound 0.00316 µM",104%
same,"viability, T/C","second compound 0.3 µM, first compound 0.01 µM",107%
same,"viability, T/C","second compound 0.3 µM, first compound 0.0316 µM",101%
same,"viability, T/C","second compound 0.3 µM, first compound 0.1 µM",102%
same,"viability, T/C","second compound 0.949 µM, first compound 0.000316 µM",103%
same,"viability, T/C","second compound 0.949 µM, first compound 0.001 µM",106%
same,"viability, T/C","second compound 0.949 µM, first compound 0.00316 µM",100%
same,"viability, T/C","second compound 0.949 µM, first compound 0.01 µM",92.1%
same,"viability, T/C","second compound 0.949 µM, first compound 0.0316 µM",87.3%
same,"viability, T/C","second compound 0.949 µM, first compound 0.1 µM",83.5%
same,"viability, T/C","second compound 3 µM, first compound 0.000316 µM",100%
same,"viability, T/C","second compound 3 µM, first compound 0.001 µM",97.1%
same,"viability, T/C","second compound 3 µM, first compound 0.00316 µM",82.9%
same,"viability, T/C","second compound 3 µM, first compound 0.01 µM",76.5%
same,"viability, T/C","second compound 3 µM, first compound 0.0316 µM",71.1%
same,"viability, T/C","second compound 3 µM, first compound 0.1 µM",74.4%
same,"viability, T/C","second compound 9.49 µM, first compound 0.000316 µM",83.8%
same,"viability, T/C","second compound 9.49 µM, first compound 0.001 µM",83.1%
same,"viability, T/C","second compound 9.49 µM, first compound 0.00316 µM",69%
same,"viability, T/C","second compound 9.49 µM, first compound 0.01 µM",71.4%
same,"viability, T/C","second compound 9.49 µM, first compound 0.0316 µM",64.3%
same,"viability, T/C","second compound 9.49 µM, first compound 0.1 µM",60.3%
same,"viability, T/C","second compound 30 µM, first compound 0.000316 µM",73.9%
same,"viability, T/C","second compound 30 µM, first compound 0.001 µM",69%
same,"viability, T/C","second compound 30 µM, first compound 0.00316 µM",63.9%
same,"viability, T/C","second compound 30 µM, first compound 0.01 µM",58.7%
same,"viability, T/C","second compound 30 µM, first compound 0.0316 µM",60.1%
same,"viability, T/C","second compound 30 µM, first compound 0.1 µM",54.5%
